Measurements reported in publication PMC10128460, “Discovery of the first-in-class potent and isoform-selective human carbonic anhydrase III inhibitors” (Journal of Enzyme Inhibition and Medicinal Chemistry, 2023).
“And” between values parts separate entries of the source, which are not always exact repeats. Equal entries are not always repeated.

Tests used:
hCA I = biological target: T1, hCA I (Homo sapiens, UniProt P00915); experiment: Stopped-Flow CO2 hydrase assay, hCA I; type: biochemical; settings: mean from 3 assays, errors ± 5–10%
T1 construct: made in house
T1 sequence (P00915 whole entry): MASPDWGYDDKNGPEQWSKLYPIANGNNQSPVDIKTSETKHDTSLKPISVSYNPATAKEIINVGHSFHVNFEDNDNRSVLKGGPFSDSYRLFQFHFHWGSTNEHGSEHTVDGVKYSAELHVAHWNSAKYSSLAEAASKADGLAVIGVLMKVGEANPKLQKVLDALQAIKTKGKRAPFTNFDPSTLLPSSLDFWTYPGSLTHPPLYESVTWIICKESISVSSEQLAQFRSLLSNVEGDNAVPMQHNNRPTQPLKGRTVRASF
Procedure: (§1) An Applied Photophysics stopped-flow instrument has been used for assaying the CA catalysed CO2 hydration activity[47]. […] The CO2 concentrations ranged from 1.7 to 17 mM for the determination of the kinetic parameters and inhibition constants. […] The uncatalysed rates were determined in the same manner and subtracted from the total observed rates. Stock solutions of inhibitor (0.1 mM) were prepared in distilled − deionized water and dilutions up to 0.01 nM were done thereafter with the assay buffer. Inhibitor and enzyme solutions were preincubated together for 15 min at room temperature before assay to allow for the formation of the E − I complex. The inhibition constants were obtained by nonlinear least-squares methods using PRISM 3 and the Cheng − Prusoff equation, as reported earlier[48]^,[49], and represent the mean from at least three different determinations. […] All hCA isoforms were recombinant ones obtained in-house as reported earlier[50].

hCA IV = biological target: T2, hCA IV (Homo sapiens, UniProt P22748); experiment: Stopped-Flow CO2 hydrase assay, hCA IV; type: biochemical; settings: mean from 3 assays, errors ± 5–10%
T2 construct: made in house
T2 sequence (P22748 19-312): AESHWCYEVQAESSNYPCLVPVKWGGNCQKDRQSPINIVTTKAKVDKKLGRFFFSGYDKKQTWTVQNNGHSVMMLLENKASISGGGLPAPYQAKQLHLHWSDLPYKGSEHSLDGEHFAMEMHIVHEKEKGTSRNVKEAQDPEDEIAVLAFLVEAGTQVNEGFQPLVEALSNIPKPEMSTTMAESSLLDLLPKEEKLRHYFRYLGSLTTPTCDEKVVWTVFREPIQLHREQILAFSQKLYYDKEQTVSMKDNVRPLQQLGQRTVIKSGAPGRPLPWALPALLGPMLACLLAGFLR
Procedure: as §1

hCA III = biological target: T3, hCA III (Homo sapiens, UniProt P07451); experiment: Stopped-Flow CO2 hydrase assay, hCA III; type: biochemical; settings: for Selectivity Index (SI) hCA I/hCA III: ratio of KI hCA I to KI hCA III; for Selectivity Index (SI) hCA II/hCA III: ratio of KI hCA II to KI hCA III; for Ki: stopped-flow CO2 hydrase, mean from 3 assays, errors ± 5–10%
T3 construct: made in house
T3 sequence (P07451 whole entry): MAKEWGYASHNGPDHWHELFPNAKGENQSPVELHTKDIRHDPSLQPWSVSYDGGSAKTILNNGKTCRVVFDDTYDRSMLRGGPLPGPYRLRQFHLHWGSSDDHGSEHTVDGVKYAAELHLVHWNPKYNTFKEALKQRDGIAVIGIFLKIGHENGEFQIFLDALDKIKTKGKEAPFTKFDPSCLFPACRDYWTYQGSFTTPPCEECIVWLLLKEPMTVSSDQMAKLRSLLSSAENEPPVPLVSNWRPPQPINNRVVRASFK
Procedure: as §1

hCA XII = biological target: T4, hCA XII (Homo sapiens, UniProt O43570); experiment: Stopped-Flow CO2 hydrase assay, hCA XII; type: biochemical; settings: mean from 3 assays, errors ± 5–10%
T4 construct: made in house
T4 sequence (O43570 25-354): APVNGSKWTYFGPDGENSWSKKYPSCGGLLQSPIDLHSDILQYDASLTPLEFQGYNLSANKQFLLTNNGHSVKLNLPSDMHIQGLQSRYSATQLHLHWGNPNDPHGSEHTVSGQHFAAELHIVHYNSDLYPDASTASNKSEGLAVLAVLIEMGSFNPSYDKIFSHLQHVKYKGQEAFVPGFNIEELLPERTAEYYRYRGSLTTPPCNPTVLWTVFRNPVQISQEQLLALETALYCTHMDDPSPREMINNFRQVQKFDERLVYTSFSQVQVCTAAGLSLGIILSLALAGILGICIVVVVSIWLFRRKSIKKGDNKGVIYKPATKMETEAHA
Procedure: as §1

hCA II = biological target: T5, hCA II (Homo sapiens, UniProt P00918); experiment: Stopped-Flow CO2 hydrase assay, hCA II; type: biochemical; settings: mean from 3 assays, errors ± 5–10%
T5 construct: made in house
Procedure: as §1

hCA VB = biological target: T6, hCA VB (Homo sapiens, UniProt Q9Y2D0); experiment: Stopped-Flow CO2 hydrase assay, hCA VB; type: biochemical; settings: mean from 3 assays, errors ± 5–10%
T6 construct: made in house
T6 sequence (Q9Y2D0 34-317): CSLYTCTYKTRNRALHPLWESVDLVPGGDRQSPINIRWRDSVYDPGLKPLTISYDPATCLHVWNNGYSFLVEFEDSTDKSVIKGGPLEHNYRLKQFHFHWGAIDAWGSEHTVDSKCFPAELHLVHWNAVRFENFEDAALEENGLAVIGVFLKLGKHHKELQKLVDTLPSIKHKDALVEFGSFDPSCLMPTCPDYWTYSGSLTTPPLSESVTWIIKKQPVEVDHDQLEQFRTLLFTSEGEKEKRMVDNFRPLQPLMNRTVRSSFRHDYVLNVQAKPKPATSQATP
Procedure: as §1

hCA VII = biological target: T7, hCA VII (Homo sapiens, UniProt P43166); experiment: Stopped-Flow CO2 hydrase assay, hCA VII; type: biochemical; settings: mean from 3 assays, errors ± 5–10%
T7 construct: made in house
T7 sequence (P43166 whole entry): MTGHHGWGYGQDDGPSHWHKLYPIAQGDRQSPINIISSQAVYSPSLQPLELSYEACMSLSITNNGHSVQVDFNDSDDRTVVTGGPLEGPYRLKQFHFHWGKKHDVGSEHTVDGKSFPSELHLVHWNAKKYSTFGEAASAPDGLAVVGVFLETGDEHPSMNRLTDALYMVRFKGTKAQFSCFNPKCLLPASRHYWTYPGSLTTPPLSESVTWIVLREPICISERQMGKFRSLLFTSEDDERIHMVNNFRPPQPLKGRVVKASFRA
Procedure: as §1

hCA VA = biological target: T8, hCA VA (Homo sapiens, UniProt P35218); experiment: Stopped-Flow CO2 hydrase assay, hCA VA; type: biochemical; settings: stopped-flow CO2 hydrase, mean from 3 assays, errors ± 5–10%; read-out: KI hCA VA
T8 construct: made in house
T8 sequence (P35218 39-305): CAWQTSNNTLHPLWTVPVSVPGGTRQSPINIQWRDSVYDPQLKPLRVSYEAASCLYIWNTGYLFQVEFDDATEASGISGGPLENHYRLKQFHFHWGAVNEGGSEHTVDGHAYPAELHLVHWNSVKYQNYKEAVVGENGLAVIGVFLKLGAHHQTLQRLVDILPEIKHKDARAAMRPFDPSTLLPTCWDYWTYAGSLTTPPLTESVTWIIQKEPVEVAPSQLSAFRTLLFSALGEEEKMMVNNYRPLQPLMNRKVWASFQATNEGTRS
Procedure: as §1

For COc1cccc(NC(=O)NCc2cn(CCCCS(N)(=O)=O)nn2)c1 [Compound 48, 4–(4-((3–(3-Methoxyphenyl)ureido)methyl)-1H-1,2,3-triazol-1-yl)butane-1-sulfonamide], the Ki (hCA I) was 5520 nM, the Ki (hCA IV) was over 10000 nM and the “Selectivity Index (SI) hCA I/hCA III” value (hCA III) was 11.6. The “Selectivity Index (SI) hCA II/hCA III” value (hCA III) was 9.7, the Ki (hCA III) was 476 nM and the Ki (hCA XII) was 4660 nM. The Ki (hCA II) was 4610 nM, the Ki (hCA VB) was 1140 nM and the melting point was 217 to 218 °C. It also gave a Ki (hCA VII) of 3900 nM and a Ki (hCA VA) of 4160 nM.

With “Ethyl 1–(4-sulfamoylbutyl)-1H-1,2,3-triazole-4-carboxylate [Compound 50]” the Ki (hCA I) was 916 nM, the Ki (hCA IV) was 3980 nM and the “Selectivity Index (SI) hCA I/hCA III” value (hCA III) was 1.18 and 1.2. The “Selectivity Index (SI) hCA II/hCA III” value (hCA III) was 1.0, the Ki (hCA III) was 775 nM and the Ki (hCA XII) was 1020 nM. It also gave a Ki (hCA II) of 772 nM, a Ki (hCA VB) of 814 nM and a Ki (hCA VII) of 809 nM. It also gave a Ki (hCA VA) of 912 nM.

For COc1cccc(OCc2cn(CCCCS(N)(=O)=O)nn2)c1 [Compound 43, 4–(4-((3-Methoxyphenoxy)methyl)-1H-1,2,3-triazol-1-yl)butane-1-sulfonamide], the Ki (hCA I) was 2320 nM, the Ki (hCA IV) was 8270 nM and the “Selectivity Index (SI) hCA I/hCA III” value (hCA III) was 5.2. For the same molecule, the “Selectivity Index (SI) hCA II/hCA III” value (hCA III) was 13.44 and 13.4, the Ki (hCA III) was 444 nM and the Ki (hCA XII) was 2720 nM. It also gave a Ki (hCA II) of 5970 nM, a Ki (hCA VB) of 1630 nM and a melting point of 186 to 188 °C. For the same molecule, the Ki (hCA VII) was 3650 nM and the Ki (hCA VA) was 2170 nM.

With COc1cccc(NC(=O)NCc2cn(CCCS(N)(=O)=O)nn2)c1 [Compound 35, 3–(4-((3–(3-Methoxyphenyl)ureido)methyl)-1H-1,2,3-triazol-1-yl)propane-1-sulfonamide] the Ki (hCA I) was over 10000 nM, the Ki (hCA IV) was over 10000 nM and the “Selectivity Index (SI) hCA II/hCA III” value (hCA III) was 1.19 and 1.2. For the same molecule, the Ki (hCA III) was 786 nM, the Ki (hCA XII) was 1980 nM and the Ki (hCA II) was 937 nM. The Ki (hCA VB) was 4000 nM, the melting point was 214 to 215 °C and the Ki (hCA VII) was 4480 nM. For the same molecule, the Ki (hCA VA) was 2040 nM.

For “4–(4-(3-Fluorophenyl)-1H-1,2,3-triazol-1-yl)butane-1-sulfonamide [Compound 52]”, the Ki (hCA I) was 778 nM, the Ki (hCA IV) was over 10000 nM and the “Selectivity Index (SI) hCA I/hCA III” value (hCA III) was 2.5. The “Selectivity Index (SI) hCA II/hCA III” value (hCA III) was 26.2, the Ki (hCA III) was 310 nM and the Ki (hCA XII) was 7810 nM. It also gave a Ki (hCA II) of 8130 nM, a Ki (hCA VB) of 2990 nM and a Ki (hCA VII) of 3230 nM. The Ki (hCA VA) was 1270 nM.

With COc1cccc(OCc2cn(CCCS(N)(=O)=O)nn2)c1 [Compound 30, 3–(4-((3-Methoxyphenoxy)methyl)-1H-1,2,3-triazol-1-yl)propane-1-sulfonamide] the Ki (hCA I) was 1910 nM, the Ki (hCA IV) was over 10000 nM and the “Selectivity Index (SI) hCA I/hCA III” value (hCA III) was 5.5. The “Selectivity Index (SI) hCA II/hCA III” value (hCA III) was 11.89 and 11.9, the Ki (hCA III) was 345 nM and the Ki (hCA XII) was 1100 nM. The Ki (hCA II) was 4100 nM, the Ki (hCA VB) was 1440 nM and the melting point was 270 to 272 °C. For the same molecule, the Ki (hCA VII) was 4680 nM and the Ki (hCA VA) was 2880 nM.

In the case of NS(=O)(=O)CCCn1cc(CNC(=O)Nc2ccc(F)cc2)nn1 [Compound 31, 3–(4-((3–(4-Fluorophenyl)ureido)methyl)-1H-1,2,3-triazol-1-yl)propane-1-sulfonamide], the Ki (hCA I) is reported as over 10000 nM, the Ki (hCA IV) is reported as 5940 nM and 5930 nM and the “Selectivity Index (SI) hCA II/hCA III” value (hCA III) is reported as 3.5. The Ki (hCA III) was 826 nM, the Ki (hCA XII) was 1500 nM and the Ki (hCA II) was 2900 nM. For the same molecule, the Ki (hCA VB) was 5870 nM, the melting point was 249 to 252 °C and the Ki (hCA VII) was 4570 nM. For the same molecule, the Ki (hCA VA) was 5700 nM.

For CCOC(=O)c1ccc(NC(=O)NCc2cn(CCCCS(N)(=O)=O)nn2)cc1 [Compound 47, Ethyl 4–(3-((1–(4-sulfamoylbutyl)-1H-1,2,3-triazol-4-yl)methyl)ureido)benzoate], the Ki (hCA I) was 6520 nM, the Ki (hCA IV) was 2600 nM and the “Selectivity Index (SI) hCA I/hCA III” value (hCA III) was 13.2. For the same molecule, the “Selectivity Index (SI) hCA II/hCA III” value (hCA III) was 1.15 and 1.1, the Ki (hCA III) was 493 nM and the Ki (hCA XII) was 2830 nM. The Ki (hCA II) was 566 nM, the Ki (hCA VB) was 1430 nM and the melting point was 259 to 261 °C. For the same molecule, the Ki (hCA VII) was 1950 nM and the Ki (hCA VA) was 3820 nM.

With Cc1ccc(NC(=O)NCc2cn(CCCCS(N)(=O)=O)nn2)cc1 [Compound 45, 4–(4-((3-(p-Tolyl)ureido)methyl)-1H-1,2,3-triazol-1-yl)butane-1-sulfonamide] the Ki (hCA I) was 5300 nM, the Ki (hCA IV) was 5740 nM and the “Selectivity Index (SI) hCA I/hCA III” value (hCA III) was 5.7. For the same molecule, the “Selectivity Index (SI) hCA II/hCA III” value (hCA III) was 5.3, the Ki (hCA III) was 930 nM and the Ki (hCA XII) was 6730 nM. The Ki (hCA II) was 4930 nM, the Ki (hCA VB) was 8110 nM and the melting point was 271 to 272 °C. It also gave a Ki (hCA VII) of 5640 nM and a Ki (hCA VA) of 3340 nM.

For COc1ccc(OCc2cn(CCCCS(N)(=O)=O)nn2)cc1 [Compound 42, 4–(4-((4-Methoxyphenoxy)methyl)-1H-1,2,3-triazol-1-yl)butane-1-sulfonamide], the Ki (hCA I) was 8540 nM, the Ki (hCA IV) was 5610 nM and the “Selectivity Index (SI) hCA II/hCA III” value (hCA III) was 5.8. It also gave a Ki (hCA III) of 676 nM, a Ki (hCA XII) of 3070 nM and a Ki (hCA II) of 3930 nM. It also gave a Ki (hCA VB) of 6670 nM, a melting point of 251 to 253 °C and a Ki (hCA VII) of 5300 nM. For the same molecule, the Ki (hCA VA) was 6040 nM.

In the case of “3–(4-(3-Fluorophenyl)-1H-1,2,3-triazol-1-yl)propane-1-sulfonamide [Compound 39]”, the Ki (hCA I) is reported as 862 nM, the Ki (hCA IV) is reported as 2610 nM and the “Selectivity Index (SI) hCA I/hCA III” value (hCA III) is reported as 5.3. The “Selectivity Index (SI) hCA II/hCA III” value (hCA III) was 19.34 and 19.3, the Ki (hCA III) was 163 nM and the Ki (hCA XII) was 1240 nM. It also gave a Ki (hCA II) of 3140 nM, a Ki (hCA VB) of 1310 nM and a Ki (hCA VII) of 6500 nM. It also gave a Ki (hCA VA) of 1570 nM.

In the case of CCOC(=O)c1ccc(NC(=O)NCc2cn(CCCS(N)(=O)=O)nn2)cc1 [Compound 34, Ethyl 4–(3-((1–(3-sulfamoylpropyl)-1H-1,2,3-triazol-4-yl)methyl)ureido)benzoate], the Ki (hCA I) is reported as over 10000 nM, the Ki (hCA IV) is reported as 4460 nM and the “Selectivity Index (SI) hCA I/hCA III” value (hCA III) is reported as over 18.29. For the same molecule, the “Selectivity Index (SI) hCA II/hCA III” value (hCA III) was 4.6, the Ki (hCA III) was 547 nM and the Ki (hCA XII) was 4900 nM. For the same molecule, the Ki (hCA II) was 2500 nM, the Ki (hCA VB) was 3740 nM and the melting point was 239 to 241 °C. The Ki (hCA VII) was 2310 nM and the Ki (hCA VA) was 2650 nM.

In the case of NS(=O)(=O)CCCn1cc(COc2ccccc2)nn1 [Compound 27, 3–(4-(Phenoxymethyl)-1H-1,2,3-triazol-1-yl)propane-1-sulfonamide], the Ki (hCA I) is reported as 760 nM, the Ki (hCA IV) is reported as 4720 nM and the “Selectivity Index (SI) hCA I/hCA III” value (hCA III) is reported as 1.16 and 1.2. The “Selectivity Index (SI) hCA II/hCA III” value (hCA III) was 4.2, the Ki (hCA III) was 654 nM and the Ki (hCA XII) was 2690 nM. It also gave a Ki (hCA II) of 2720 nM, a Ki (hCA VB) of 2890 nM and a melting point of 254 to 255 °C. The Ki (hCA VII) was 2700 nM and the Ki (hCA VA) was 3870 nM.

With COc1ccc(NC(=O)NCc2cn(CCCCS(N)(=O)=O)nn2)c(C)c1 [Compound 49, 4–(4-((3–(4-Methoxy-2-methylphenyl)ureido)methyl)-1H-1,2,3-triazol-1-yl)butane-1-sulfonamide] the Ki (hCA I) was over 10000 nM, the Ki (hCA XII) was 5820 nM and the melting point was 282 to 285 °C. The Ki (hCA VII) was 5150 nM and the Ki (hCA VA) was 8770 nM.

For “3–(4-Phenyl-1H-1,2,3-triazol-1-yl)propane-1-sulfonamide [Compound 38]”, the Ki (hCA I) was 607 nM, the Ki (hCA IV) was 959 nM and the “Selectivity Index (SI) hCA I/hCA III” value (hCA III) was 1.21 and 1.2. For the same molecule, the “Selectivity Index (SI) hCA II/hCA III” value (hCA III) was 1.4, the Ki (hCA III) was 502 nM and the Ki (hCA XII) was 1060 nM. It also gave a Ki (hCA II) of 713 nM, a Ki (hCA VB) of 1040 nM and a Ki (hCA VII) of 860 nM. For the same molecule, the Ki (hCA VA) was 1650 nM.
